Consider one substance from patent US20070166696A1, “Adenovirus-transfected primary cells and methods of pathway mapping” (SANOFI-AVENTIS U.S. LLC, priority 2003, published 2007).

Common to all, as to assay type: cell-based, human
In one test the test system is CRE cis-element. Briefly: Adenovirus luciferase reporter in CD14+ plate-bound macrophages. The note with it: LPS 1 μg/ml, 24 hours post stimulation. The procedure:
(§1) After a certain amount of time post stimulation, the cells are collected and luciferase activity is measured. Luciferase activity can be measured by an enzyme assay using a photon generating substrate and detecting photons by luminometer.
(§2) Similar experiments were performed for CD14^+ plate-bound macrophages. In this example, macrophages are obtained as follows: First, peripheral blood mononuclear cells (“PBMCs”) are obtained by density gradient centrifugation. One density gradient centrifugation medium is FICOLL PAQUE, commercially available from Amersham Biosciences. Monocytes are then isolated from the PBMCs by magnetic depletion of non-monocytes. Finally, macrophages are isolated from the monocytes by attachment of the monocytes to a tissue culture plate in the absence of fetal bovine serum (“FBS”).
(§3) In this example, resting cultures of isolated macrophages are then infected with a recombinant adenovirus containing the luciferase gene which is transcribed under the control of a specific cis-element. In this example, four recombinant adenovirus constructs are used to infect four separate cultures of macrophages, each construct containing one of four cis-elements: CRE, AP-1, NFκB, and ISRE. The macrophages are infected at a MOI of 100 per cell. […] At 24 hours post stimulation, cells are harvested and luciferase activity is measured by luminometer. […]
(In general: In a reporter assay the amount or activity of a reporter protein is the signal.)

The subject of test [1] is AP-1 cis-element. The test is described as above. The note with it: LPS 1 μg/ml, 24 hours post stimulation. The procedure: as §1, §2, §3
A further test has as its system NFκB cis-element. Briefly: Adenovirus luciferase reporter in iDCs. The note with it: LPS 1 μg/ml, 2, 4, 8, 24 hours time course. How it is done: as §1
(§4) Similar experiments were performed for in vitro differentiated dendritic cells (“iDCs”). In this example, iDCs are obtained as follows: First, peripheral blood mononuclear cells (“PBMCs”) are obtained by density gradient centrifugation. One density gradient centrifugation medium is FICOLL PAQUE, commercially available from Amersham Biosciences. Monocytes are then isolated from the PBMCs by magnetic depletion of non-monocytes. Finally, iDCs are isolated from the monocytes by treatment of the monocytes with ILA and GM-GSF for 6 days.
(§5) In this example, resting cultures of isolated iDCs are then infected with a recombinant adenovirus containing the luciferase gene which is transcribed under the control of a specific cis-element. In this example, three recombinant adenovirus constructs are used to infect three separate cultures of iDCs, each construct containing one of three cis-elements: AP-1, NFκB, and ISRE. The iDCs are infected at a MOI of 100 per cell. After 16 hours of incubation post infection, the iDCs are then either mock stimulated (“C”) or stimulated with lipopolysaccharide (“LPS”) at the concentration of 1 μg/ml. At 2 hours, 4 hours, 8 hours, and 24 hours post stimulation, cells are harvested and luciferase activity is measured by luminometer. FIG. 6B contains three charts depicting the time course of AP-1, NFκB, and ISRE stimulation, respectively. […] These charts also indicate different time courses of activation.

Test [2] relates to AP-1 cis-element. In words: Adenovirus luciferase reporter in iDCs. The note with it: LPS 1 μg/ml, 2, 4, 8, 24 hours time course. The procedure:
as §1, §4, §5

The test system of another test is ISRE cis-element. In words: Adenovirus luciferase reporter in iDCs. The note with it: LPS 1 μg/ml, 2, 4, 8, 24 hours time course. The procedure: as §1, §4, §5

On to lipopolysaccharide [LPS], for which the “activation of the CRE cis-element (luciferase activity)” value in the test on CRE cis-element is “significant stimulated activation”. Moreover, the “activation of the AP-1 cis-element (luciferase activity)” value with AP-1 cis-element [1] was “significant stimulated activation”. Also, the “stimulation of the NFκB cis-element (luciferase activity)” value in the test on NFκB cis-element is reported as “significant stimulation”. The “stimulation of the AP-1 cis-element (luciferase activity)” value with AP-1 cis-element [2] is “significant stimulation”. The “stimulation of the ISRE cis-element (luciferase activity)” value in the test on ISRE cis-element was “significant stimulation”.
